# Measured values published in ChEMBL document CHEMBL5291721, “A preclinical secondary pharmacology resource illuminates target-adverse drug reaction associations of marketed drugs” (Nat Commun, 2023).
# Experiments:
# [1] = biological target: Voltage-dependent N-type calcium channel subunit alpha-1B (Rattus norvegicus, UniProt Q02294); format: functional
# [2] = biological target: T1, Corticotropin-releasing factor receptor 1 (Homo sapiens, UniProt P34998)
# T1 sequence (P34998 whole entry): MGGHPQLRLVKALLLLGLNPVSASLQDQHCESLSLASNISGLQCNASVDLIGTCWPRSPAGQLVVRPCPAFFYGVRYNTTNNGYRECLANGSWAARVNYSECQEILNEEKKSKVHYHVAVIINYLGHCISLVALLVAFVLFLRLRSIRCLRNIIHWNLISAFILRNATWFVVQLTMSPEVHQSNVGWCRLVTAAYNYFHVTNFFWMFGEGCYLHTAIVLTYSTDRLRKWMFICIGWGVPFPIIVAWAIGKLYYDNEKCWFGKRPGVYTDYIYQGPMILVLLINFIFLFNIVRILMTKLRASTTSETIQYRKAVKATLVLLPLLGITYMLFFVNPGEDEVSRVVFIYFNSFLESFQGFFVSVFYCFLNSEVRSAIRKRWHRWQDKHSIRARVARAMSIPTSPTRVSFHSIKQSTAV
# Estrogen receptor beta = Estrogen receptor beta (Homo sapiens, UniProt Q92731)
# Estrogen receptor beta, sequence (Q92731 whole entry): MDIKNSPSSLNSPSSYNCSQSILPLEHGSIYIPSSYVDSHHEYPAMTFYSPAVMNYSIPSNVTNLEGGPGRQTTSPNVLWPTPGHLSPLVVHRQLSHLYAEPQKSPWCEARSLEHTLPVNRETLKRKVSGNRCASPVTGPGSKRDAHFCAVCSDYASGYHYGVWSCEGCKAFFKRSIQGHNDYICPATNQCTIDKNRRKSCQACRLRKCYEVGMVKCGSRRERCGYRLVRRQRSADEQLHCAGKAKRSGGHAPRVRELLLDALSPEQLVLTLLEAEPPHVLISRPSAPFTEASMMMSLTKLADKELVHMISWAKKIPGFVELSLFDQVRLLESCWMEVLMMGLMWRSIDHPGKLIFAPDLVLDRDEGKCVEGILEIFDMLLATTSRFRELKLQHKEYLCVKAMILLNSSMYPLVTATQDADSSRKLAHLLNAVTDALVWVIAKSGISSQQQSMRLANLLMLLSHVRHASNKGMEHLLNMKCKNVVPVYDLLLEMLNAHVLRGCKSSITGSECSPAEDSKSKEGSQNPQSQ
# Substance-P receptor = Substance-P receptor (Homo sapiens, UniProt P25103)
# D(1A) dopamine receptor = D(1A) dopamine receptor (Homo sapiens, UniProt P21728)
# D(1A) dopamine receptor, sequence (P21728 whole entry): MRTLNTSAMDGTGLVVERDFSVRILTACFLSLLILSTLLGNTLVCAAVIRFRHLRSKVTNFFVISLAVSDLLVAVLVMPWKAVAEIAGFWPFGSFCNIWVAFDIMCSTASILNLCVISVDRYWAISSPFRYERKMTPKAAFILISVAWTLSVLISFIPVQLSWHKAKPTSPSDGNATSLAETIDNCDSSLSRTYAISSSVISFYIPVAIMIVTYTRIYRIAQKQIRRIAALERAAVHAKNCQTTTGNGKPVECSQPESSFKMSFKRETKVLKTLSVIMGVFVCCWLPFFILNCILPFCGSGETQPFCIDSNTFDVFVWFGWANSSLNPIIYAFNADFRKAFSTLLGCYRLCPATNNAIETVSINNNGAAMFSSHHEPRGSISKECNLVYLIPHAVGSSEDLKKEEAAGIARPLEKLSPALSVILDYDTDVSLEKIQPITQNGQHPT
# Histamine H2 receptor = Histamine H2 receptor (Homo sapiens, UniProt P25021)
# Histamine H2 receptor, sequence (P25021 whole entry): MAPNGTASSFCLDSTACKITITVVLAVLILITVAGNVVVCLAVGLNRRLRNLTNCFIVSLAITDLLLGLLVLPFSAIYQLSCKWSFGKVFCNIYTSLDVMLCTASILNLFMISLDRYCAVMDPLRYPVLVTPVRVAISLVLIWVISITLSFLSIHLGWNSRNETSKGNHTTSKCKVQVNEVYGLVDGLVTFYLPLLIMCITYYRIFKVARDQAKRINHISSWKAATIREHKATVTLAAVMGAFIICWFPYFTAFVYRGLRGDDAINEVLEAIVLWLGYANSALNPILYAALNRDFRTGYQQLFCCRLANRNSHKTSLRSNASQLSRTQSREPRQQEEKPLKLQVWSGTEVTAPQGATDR
# [3] = biological target: 5-hydroxytryptamine receptor 2B (Homo sapiens, UniProt P41595)
# [4] = biological target: T2, Muscarinic acetylcholine receptor M2 (Homo sapiens, UniProt P08172)
# T2 sequence (P08172 whole entry): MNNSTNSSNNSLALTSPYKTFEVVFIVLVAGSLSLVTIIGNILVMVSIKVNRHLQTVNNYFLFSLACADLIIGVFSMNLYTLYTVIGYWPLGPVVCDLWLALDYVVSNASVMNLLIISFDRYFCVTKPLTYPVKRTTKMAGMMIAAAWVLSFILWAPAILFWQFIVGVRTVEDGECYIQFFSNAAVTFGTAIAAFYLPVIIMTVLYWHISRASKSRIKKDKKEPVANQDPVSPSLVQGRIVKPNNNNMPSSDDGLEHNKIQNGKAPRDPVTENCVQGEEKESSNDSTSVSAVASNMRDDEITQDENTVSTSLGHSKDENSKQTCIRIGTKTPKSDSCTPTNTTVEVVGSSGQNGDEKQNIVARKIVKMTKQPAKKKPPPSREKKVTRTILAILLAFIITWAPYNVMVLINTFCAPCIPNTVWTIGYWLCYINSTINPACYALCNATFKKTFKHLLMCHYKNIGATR
# Acetylcholinesterase = Acetylcholinesterase (Homo sapiens, UniProt P22303); format: functional
# Acetylcholinesterase, sequence (P22303 whole entry): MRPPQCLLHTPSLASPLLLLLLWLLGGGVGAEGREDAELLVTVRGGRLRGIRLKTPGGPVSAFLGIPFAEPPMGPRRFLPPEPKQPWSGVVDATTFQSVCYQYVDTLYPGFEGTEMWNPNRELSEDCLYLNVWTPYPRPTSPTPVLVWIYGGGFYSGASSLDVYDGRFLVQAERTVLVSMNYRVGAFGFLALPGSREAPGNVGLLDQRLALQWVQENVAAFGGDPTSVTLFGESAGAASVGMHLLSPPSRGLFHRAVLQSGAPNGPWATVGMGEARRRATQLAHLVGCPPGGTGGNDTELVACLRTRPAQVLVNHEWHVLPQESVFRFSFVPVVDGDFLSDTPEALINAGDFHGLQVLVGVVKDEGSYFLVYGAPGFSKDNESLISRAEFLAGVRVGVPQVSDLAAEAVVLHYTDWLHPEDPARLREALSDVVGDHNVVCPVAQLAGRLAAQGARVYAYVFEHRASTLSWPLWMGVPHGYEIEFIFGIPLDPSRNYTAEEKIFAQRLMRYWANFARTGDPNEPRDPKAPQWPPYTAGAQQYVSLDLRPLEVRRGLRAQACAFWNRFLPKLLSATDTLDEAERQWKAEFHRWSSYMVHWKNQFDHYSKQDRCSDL
# [5] = biological target: T3, Muscarinic acetylcholine receptor M1 (Homo sapiens, UniProt P11229)
# T3 sequence (P11229 whole entry): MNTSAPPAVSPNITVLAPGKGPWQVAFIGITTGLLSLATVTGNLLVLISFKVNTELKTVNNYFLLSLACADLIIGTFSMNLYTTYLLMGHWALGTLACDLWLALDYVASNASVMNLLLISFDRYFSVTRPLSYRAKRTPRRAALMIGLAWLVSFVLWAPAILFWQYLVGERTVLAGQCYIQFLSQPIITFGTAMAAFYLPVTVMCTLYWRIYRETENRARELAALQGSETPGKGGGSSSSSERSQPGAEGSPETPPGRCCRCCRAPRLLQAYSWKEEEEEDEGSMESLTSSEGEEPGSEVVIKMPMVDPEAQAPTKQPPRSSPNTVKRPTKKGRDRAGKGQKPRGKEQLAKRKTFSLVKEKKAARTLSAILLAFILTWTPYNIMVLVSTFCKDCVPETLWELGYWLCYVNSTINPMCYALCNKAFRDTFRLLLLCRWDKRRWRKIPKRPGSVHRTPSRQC
# [6] = biological target: Synaptic vesicular amine transporter (Rattus norvegicus, UniProt Q01827); format: functional
# Synaptic vesicular amine transporter, sequence (Q01827 whole entry): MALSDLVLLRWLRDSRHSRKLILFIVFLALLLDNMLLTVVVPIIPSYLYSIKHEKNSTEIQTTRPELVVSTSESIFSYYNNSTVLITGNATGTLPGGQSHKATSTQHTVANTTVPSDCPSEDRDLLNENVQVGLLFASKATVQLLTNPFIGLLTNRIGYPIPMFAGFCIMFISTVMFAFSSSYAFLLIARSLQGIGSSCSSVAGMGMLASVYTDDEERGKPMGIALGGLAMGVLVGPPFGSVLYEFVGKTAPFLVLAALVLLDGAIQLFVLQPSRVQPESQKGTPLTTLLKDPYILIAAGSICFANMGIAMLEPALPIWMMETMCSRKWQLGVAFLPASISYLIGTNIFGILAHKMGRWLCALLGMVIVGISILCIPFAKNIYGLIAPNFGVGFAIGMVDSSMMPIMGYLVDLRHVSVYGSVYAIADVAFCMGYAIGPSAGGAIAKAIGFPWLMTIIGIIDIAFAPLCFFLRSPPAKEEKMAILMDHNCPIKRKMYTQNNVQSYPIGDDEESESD
# Androgen receptor = biological target: T4, Androgen receptor (Rattus norvegicus, UniProt P15207)
# T4 sequence (P15207 whole entry): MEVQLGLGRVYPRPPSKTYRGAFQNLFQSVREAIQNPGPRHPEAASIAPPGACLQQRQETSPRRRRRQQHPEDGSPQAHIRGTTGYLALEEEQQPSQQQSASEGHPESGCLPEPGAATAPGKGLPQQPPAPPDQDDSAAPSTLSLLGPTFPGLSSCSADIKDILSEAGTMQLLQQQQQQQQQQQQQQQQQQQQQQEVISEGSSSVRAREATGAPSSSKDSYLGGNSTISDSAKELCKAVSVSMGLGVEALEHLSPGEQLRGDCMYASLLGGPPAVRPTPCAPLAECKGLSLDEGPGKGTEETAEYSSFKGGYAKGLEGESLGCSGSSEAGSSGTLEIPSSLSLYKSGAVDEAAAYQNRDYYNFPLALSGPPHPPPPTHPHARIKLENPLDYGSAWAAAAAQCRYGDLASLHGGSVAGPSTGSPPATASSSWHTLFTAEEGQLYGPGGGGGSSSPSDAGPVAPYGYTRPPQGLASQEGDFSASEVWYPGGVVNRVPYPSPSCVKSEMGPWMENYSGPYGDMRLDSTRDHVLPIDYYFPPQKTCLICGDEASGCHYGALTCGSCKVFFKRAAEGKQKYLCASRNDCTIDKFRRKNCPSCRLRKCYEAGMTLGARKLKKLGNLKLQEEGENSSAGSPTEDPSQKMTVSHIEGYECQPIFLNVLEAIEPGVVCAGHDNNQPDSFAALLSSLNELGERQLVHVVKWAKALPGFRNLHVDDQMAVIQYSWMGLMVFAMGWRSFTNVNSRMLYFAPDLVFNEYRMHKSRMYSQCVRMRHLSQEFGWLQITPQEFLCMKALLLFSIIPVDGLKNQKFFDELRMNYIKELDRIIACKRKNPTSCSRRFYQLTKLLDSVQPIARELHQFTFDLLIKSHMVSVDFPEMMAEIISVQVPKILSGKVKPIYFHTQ
# Further: assay procedure not described here.
# Voltage-dependent N-type calcium channel subunit alpha-1B, sequence (Q02294 whole entry): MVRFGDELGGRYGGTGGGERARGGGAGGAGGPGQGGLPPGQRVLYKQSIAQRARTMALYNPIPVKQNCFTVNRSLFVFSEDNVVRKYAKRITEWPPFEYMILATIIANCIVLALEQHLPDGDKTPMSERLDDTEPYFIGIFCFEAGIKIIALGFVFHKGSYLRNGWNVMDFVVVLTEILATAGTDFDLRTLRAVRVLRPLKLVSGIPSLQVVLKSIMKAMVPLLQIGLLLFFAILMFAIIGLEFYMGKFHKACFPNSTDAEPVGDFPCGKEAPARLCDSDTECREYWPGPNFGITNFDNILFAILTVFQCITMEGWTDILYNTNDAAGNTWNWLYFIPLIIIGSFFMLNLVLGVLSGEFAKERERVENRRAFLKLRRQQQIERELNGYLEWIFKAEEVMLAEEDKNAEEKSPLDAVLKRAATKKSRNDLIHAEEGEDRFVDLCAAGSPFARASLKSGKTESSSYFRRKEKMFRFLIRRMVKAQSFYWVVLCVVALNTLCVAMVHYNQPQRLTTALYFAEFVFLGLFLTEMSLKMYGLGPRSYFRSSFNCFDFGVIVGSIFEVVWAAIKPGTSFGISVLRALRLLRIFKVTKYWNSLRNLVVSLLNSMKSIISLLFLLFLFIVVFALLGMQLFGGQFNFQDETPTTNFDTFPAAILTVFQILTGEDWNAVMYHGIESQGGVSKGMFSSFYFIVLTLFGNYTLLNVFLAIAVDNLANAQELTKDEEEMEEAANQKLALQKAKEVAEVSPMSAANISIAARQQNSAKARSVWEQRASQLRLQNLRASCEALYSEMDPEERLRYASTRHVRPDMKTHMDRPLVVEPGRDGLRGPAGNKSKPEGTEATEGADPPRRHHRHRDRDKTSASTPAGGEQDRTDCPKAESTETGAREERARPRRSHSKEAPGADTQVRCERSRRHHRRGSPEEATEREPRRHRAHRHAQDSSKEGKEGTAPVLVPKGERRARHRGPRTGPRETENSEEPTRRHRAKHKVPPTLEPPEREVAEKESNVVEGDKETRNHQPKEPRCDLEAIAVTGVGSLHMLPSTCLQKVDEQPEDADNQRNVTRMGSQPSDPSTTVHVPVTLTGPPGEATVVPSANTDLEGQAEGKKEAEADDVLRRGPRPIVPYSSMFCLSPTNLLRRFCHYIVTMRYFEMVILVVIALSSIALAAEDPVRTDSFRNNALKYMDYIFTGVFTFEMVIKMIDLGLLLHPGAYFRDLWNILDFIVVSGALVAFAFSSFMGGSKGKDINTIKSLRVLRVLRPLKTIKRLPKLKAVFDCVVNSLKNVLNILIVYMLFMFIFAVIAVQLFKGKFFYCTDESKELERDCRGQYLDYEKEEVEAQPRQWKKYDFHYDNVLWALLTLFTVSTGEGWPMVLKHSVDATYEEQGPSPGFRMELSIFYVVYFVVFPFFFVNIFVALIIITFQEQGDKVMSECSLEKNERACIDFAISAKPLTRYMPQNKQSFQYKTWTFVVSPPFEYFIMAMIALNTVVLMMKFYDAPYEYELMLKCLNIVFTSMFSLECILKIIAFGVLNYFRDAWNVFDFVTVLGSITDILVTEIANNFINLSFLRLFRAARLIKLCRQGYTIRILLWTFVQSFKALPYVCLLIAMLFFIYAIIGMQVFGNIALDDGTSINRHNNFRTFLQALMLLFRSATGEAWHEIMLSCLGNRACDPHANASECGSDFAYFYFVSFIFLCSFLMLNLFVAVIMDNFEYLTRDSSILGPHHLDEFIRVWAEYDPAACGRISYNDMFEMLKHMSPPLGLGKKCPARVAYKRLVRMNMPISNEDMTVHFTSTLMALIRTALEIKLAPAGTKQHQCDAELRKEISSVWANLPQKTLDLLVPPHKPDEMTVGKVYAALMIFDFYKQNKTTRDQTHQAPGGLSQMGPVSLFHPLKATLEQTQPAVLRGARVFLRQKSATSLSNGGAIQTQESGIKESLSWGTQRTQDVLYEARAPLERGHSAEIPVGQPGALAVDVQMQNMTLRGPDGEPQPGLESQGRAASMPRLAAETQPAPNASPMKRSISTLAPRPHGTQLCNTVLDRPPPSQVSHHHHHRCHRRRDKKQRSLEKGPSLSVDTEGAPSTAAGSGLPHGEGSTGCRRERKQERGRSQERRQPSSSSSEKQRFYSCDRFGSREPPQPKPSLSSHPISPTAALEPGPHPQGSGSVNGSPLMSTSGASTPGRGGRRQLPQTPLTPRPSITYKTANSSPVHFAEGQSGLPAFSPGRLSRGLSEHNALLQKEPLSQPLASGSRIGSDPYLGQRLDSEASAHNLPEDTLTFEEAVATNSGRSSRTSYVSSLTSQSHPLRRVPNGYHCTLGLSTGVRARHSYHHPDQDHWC
structure (smiles),measurement,setting,value
CN(C)CCC=C1c2ccccc2CCc2ccccc21 [AMITRIPTYLINE],AC50,[1],> 10 µM
same,AC50,[2],> 30 µM
same,AC50,Estrogen receptor beta,> 30 µM
same,AC50,Substance-P receptor,> 10 µM
same,AC50,D(1A) dopamine receptor,0.452 µM
NCC1(CC(=O)O)CCCCC1 [GABAPENTIN],AC50,[2],> 30 µM
same,AC50,Histamine H2 receptor,> 10 µM
same,AC50,[3],> 10 µM
same,AC50,Substance-P receptor,> 10 µM
same,AC50,[4],> 10 µM
same,AC50,D(1A) dopamine receptor,> 10 µM
same,AC50,Acetylcholinesterase,> 30 µM
C[C@H](CCC(=O)O)[C@H]1CC[C@H]2[C@@H]3[C@H](O)C[C@@H]4C[C@H](O)CC[C@]4(C)[C@H]3CC[C@]12C [CHENODIOL],AC50,Acetylcholinesterase,> 30 µM
C#CCN(C)Cc1ccccc1 [PARGYLINE],AC50,[5],> 30 µM
CN(C)CCCC1(c2ccc(F)cc2)OCc2cc(C#N)ccc21 (stereo not drawn) [CITALOPRAM],AC50,[1],> 10 µM
same,AC50,[2],> 30 µM
same,AC50,Estrogen receptor beta,> 30 µM
same,AC50,[3],0.273 µM
same,AC50,Substance-P receptor,> 10 µM
N#Cc1ccnc(N2C(=O)CC[C@H]2C(=O)N(c2cncc(F)c2)[C@H](C(=O)NC2CC(F)(F)C2)c2ccccc2Cl)c1 [IVOSIDENIB],AC50,[6],> 30 µM
CO[C@@H]1[C@@H](OC(N)=O)[C@@H](O)[C@H](Oc2ccc3c(O)c(NC(=O)c4ccc(O)c(CC=C(C)C)c4)c(=O)oc3c2C)OC1(C)C [NOVOBIOCIN],AC50,Acetylcholinesterase,> 30 µM
CCC[C@@]1(CCc2ccccc2)CC(O)=C([C@H](CC)c2cccc(NS(=O)(=O)c3ccc(C(F)(F)F)cn3)c2)C(=O)O1,AC50,Acetylcholinesterase,> 30 µM
O=c1[nH]c2ccccc2n1CCN1CCN(c2cccc(C(F)(F)F)c2)CC1 [FLIBANSERIN],AC50,[6],0.072 µM
C[C@]12CCC(=O)C=C1CC[C@H]1[C@@H]3CC[C@](O)(C(=O)CO)[C@@]3(C)C[C@H](O)[C@@]12F [FLUDROCORTISONE],AC50,[1],> 10 µM
same,AC50,[2],> 30 µM
same,AC50,Estrogen receptor beta,> 30 µM
same,AC50,Histamine H2 receptor,> 10 µM
same,AC50,[3],> 10 µM
same,AC50,[4],> 10 µM
same,AC50,D(1A) dopamine receptor,> 10 µM
C[C@H](CS)C(=O)N1CCC[C@H]1C(=O)O [CAPTOPRIL],AC50,Androgen receptor,> 30 µM
C=CC1=C(C(=O)O)N2C(=O)[C@@H](NC(=O)/C(=N\O)c3csc(N)n3)[C@H]2SC1,AC50,Androgen receptor,> 30 µM
CCOC(=O)[C@H](CCc1ccccc1)N[C@@H](C)C(=O)N1Cc2ccccc2C[C@H]1C(=O)O,AC50,[1],> 10 µM
same,AC50,[2],> 30 µM
same,AC50,Estrogen receptor beta,> 30 µM
same,AC50,Histamine H2 receptor,> 10 µM
same,AC50,[3],> 10 µM
same,AC50,Substance-P receptor,> 10 µM
same,AC50,[4],> 10 µM
same,AC50,D(1A) dopamine receptor,> 10 µM
CCCCCCCC/C=C\CCCCCCCC(=O)O [OLEIC ACID],AC50,[6],4.7 µM
CC(=O)Oc1ccccc1C(=O)O [ASPIRIN],AC50,Androgen receptor,> 30 µM
same,AC50,[1],> 10 µM
same,AC50,[2],> 30 µM
same,AC50,Estrogen receptor beta,> 30 µM
same,AC50,Histamine H2 receptor,> 10 µM
same,AC50,[3],> 10 µM
same,AC50,Substance-P receptor,> 10 µM
same,AC50,D(1A) dopamine receptor,> 10 µM
O=C(O)COC(=O)Cc1ccccc1Nc1c(Cl)cccc1Cl [ACECLOFENAC],AC50,Androgen receptor,> 30 µM
C[C@H](Nc1ncnc2[nH]cnc12)c1cc2cccc(Cl)c2c(=O)n1-c1ccccc1 [DUVELISIB],AC50,[5],> 30 µM
same,AC50,Acetylcholinesterase,> 30 µM
CC#CC(=O)N1CCC[C@H]1c1nc(-c2ccc(C(=O)Nc3ccccn3)cc2)c2c(N)nccn12 [ACALABRUTINIB],AC50,[5],> 30 µM
CC(=O)SCC(Cc1ccccc1)C(=O)NCC(=O)OCc1ccccc1 (stereo not drawn) [RACECADOTRIL],AC50,[1],> 10 µM
same,AC50,Histamine H2 receptor,> 10 µM
same,AC50,[3],> 10 µM
same,AC50,[4],> 10 µM
same,AC50,D(1A) dopamine receptor,> 10 µM
CN(C)CCc1c[nH]c2ccc(CS(=O)(=O)N3CCCC3)cc12 [ALMOTRIPTAN],AC50,[3],0.51 µM
Cc1c(C)c2c(c(C)c1O)CCC(C)(COc1ccc(CC3SC(=O)NC3=O)cc1)O2 (stereo not drawn) [TROGLITAZONE],AC50,Androgen receptor,3.57 µM
same,AC50,[2],> 30 µM
same,AC50,Estrogen receptor beta,> 30 µM
CCCCCCO[C@@H](C)c1cccc(-c2csc(NC(=O)c3cc(Cl)c(/C=C(\C)C(=O)O)c(Cl)c3)n2)c1OC [LUSUTROMBOPAG],AC50,[5],> 30 µM
same,AC50,[6],4.1 µM
O=C1[C@@H]2[C@H]3CC[C@H](C3)[C@@H]2C(=O)N1C[C@@H]1CCCC[C@H]1CN1CCN(c2nsc3ccccc23)CC1 [LURASIDONE],AC50,[6],0.0699 µM
same,AC50,Acetylcholinesterase,1.3 µM
O=C(Cc1cccs1)N[C@@H]1C(=O)N2C(C(=O)[O-])=C(C[n+]3ccccc3)CS[C@H]12 [CEPHALORIDINE],AC50,[5],> 30 µM
c1cnc2cc3c(cc2n1)[C@@H]1CNC[C@H]3C1 [VARENICLINE],AC50,Acetylcholinesterase,> 30 µM
C[C@H](Cn1cnc2c(N)ncnc21)OCP(=O)(O)O [TENOFOVIR ANHYDROUS],AC50,Androgen receptor,> 30 µM
CN1CC2c3ccccc3Oc3ccc(Cl)cc3C2C1 (stereo not drawn) [ASENAPINE],AC50,[6],1.05 µM
same,AC50,Acetylcholinesterase,> 30 µM
OC[C@H]1NC[C@H](O)[C@@H](O)[C@H]1O,AC50,[6],> 30 µM
Cc1ccc(C(C)C)c(O)c1 [THYMOL],AC50,[6],25 µM
Cn1cnc2c(F)c(Nc3ccc(Br)cc3F)c(C(=O)NOCCO)cc21 [BINIMETINIB],AC50,[6],> 30 µM
same,AC50,Acetylcholinesterase,> 30 µM
O=C(O)[C@@H](S)[C@@H](S)C(=O)O,AC50,[5],> 30 µM
OCCOCCN1CCN(C(c2ccccc2)c2ccc(Cl)cc2)CC1 (stereo not drawn) [HYDROXYZINE],AC50,[1],> 10 µM
same,AC50,[2],> 30 µM
same,AC50,Histamine H2 receptor,0.188 µM
same,AC50,[3],0.157 µM
same,AC50,Substance-P receptor,> 10 µM
same,AC50,[4],9.04 µM
same,AC50,D(1A) dopamine receptor,> 10 µM
C[C@@H](O)[C@H]1C(=O)N2C(C(=O)O)=C(SCCN=CN)C[C@H]12 [IMIPENEM ANHYDROUS],AC50,Acetylcholinesterase,> 300 µM
Nc1nnc(-c2cccc(Cl)c2Cl)c(N)n1 [LAMOTRIGINE],AC50,[1],> 10 µM
same,AC50,[2],> 30 µM
same,AC50,Estrogen receptor beta,> 30 µM
same,AC50,Histamine H2 receptor,> 10 µM
same,AC50,[3],> 10 µM
same,AC50,[6],18 µM
same,AC50,Substance-P receptor,> 10 µM
same,AC50,[4],> 10 µM
same,AC50,D(1A) dopamine receptor,> 10 µM
